From the NIST ThermoML archive (doi:10.1021/je060271a)
Values joined by “and” are separate entries in the source; they are usually repeats but may differ in a detail not shown here. Equal values may be shown once. Numbers after ± are expanded uncertainties.

Conditions: 283.14 K, Liquid, Vibrating tube method

CCCCCCC(=O)OCC(COC(=O)CCCCCC)(COC(=O)CCCCCC)COC(=O)CCCCCC [pentaerythritol tetraheptanoate]
Conditions | mass density
4385.6 kPa | 988.4 ± 1.2 kg/m3
4385.7 kPa | 988.4 ± 1.2 kg/m3 and 988.5 ± 1.2 kg/m3
4385.8 kPa | 988.4 ± 1.2 kg/m3
4385.9 kPa | 988.3 ± 1.2 kg/m3 and 988.4 ± 1.2 kg/m3 and 988.5 ± 1.2 kg/m3
4386 kPa | 988.4 ± 1.2 kg/m3 and 988.3 ± 1.2 kg/m3
4386.1 kPa | 988.5 ± 1.2 kg/m3 and 988.4 ± 1.2 kg/m3 and 988.3 ± 1.2 kg/m3
4386.2 kPa | 988.4 ± 1.2 kg/m3
4386.5 kPa | 988.5 ± 1.2 kg/m3
4386.7 kPa | 988.4 ± 1.2 kg/m3
4387 kPa | 988.3 ± 1.2 kg/m3 and 988.4 ± 1.2 kg/m3
4387.4 kPa | 988.4 ± 1.2 kg/m3
4388.1 kPa | 988.3 ± 1.2 kg/m3
4388.6 kPa | 988.5 ± 1.2 kg/m3
4392.2 kPa | 988.4 ± 1.2 kg/m3
4392.3 kPa | 988.5 ± 1.2 kg/m3
4393.3 kPa | 988.3 ± 1.2 kg/m3
4394 kPa | 988.5 ± 1.2 kg/m3
4394.1 kPa | 988.5 ± 1.2 kg/m3
4394.5 kPa | 988.4 ± 1.2 kg/m3
4394.7 kPa | 988.4 ± 1.2 kg/m3
4395.2 kPa | 988.5 ± 1.2 kg/m3 and 988.4 ± 1.2 kg/m3
4395.7 kPa | 988.4 ± 1.2 kg/m3
4396 kPa | 988.4 ± 1.2 kg/m3
4396.2 kPa | 988.5 ± 1.2 kg/m3
4396.6 kPa | 988.4 ± 1.2 kg/m3
4401.3 kPa | 988.5 ± 1.2 kg/m3
4404.8 kPa | 988.5 ± 1.2 kg/m3
4409.8 kPa | 988.5 ± 1.2 kg/m3
4413.5 kPa | 988.4 ± 1.2 kg/m3
4417.1 kPa | 988.4 ± 1.2 kg/m3
4421.1 kPa | 988.4 ± 1.2 kg/m3
4425.8 kPa | 988.5 ± 1.2 kg/m3
4429.6 kPa | 988.5 ± 1.2 kg/m3
4433.4 kPa | 988.4 ± 1.2 kg/m3
4437.9 kPa | 988.4 ± 1.2 kg/m3
4441.9 kPa | 988.6 ± 1.2 kg/m3
4445.5 kPa | 988.5 ± 1.2 kg/m3
4450.3 kPa | 988.4 ± 1.2 kg/m3
4452.1 kPa | 988.5 ± 1.2 kg/m3
4456.8 kPa | 988.4 ± 1.2 kg/m3
4460.9 kPa | 988.4 ± 1.2 kg/m3
4464.4 kPa | 988.4 ± 1.2 kg/m3
4469.4 kPa | 988.4 ± 1.2 kg/m3
4473.1 kPa | 988.5 ± 1.2 kg/m3
4476.9 kPa | 988.5 ± 1.2 kg/m3
4480.5 kPa | 988.4 ± 1.2 kg/m3
4485.5 kPa | 988.4 ± 1.2 kg/m3
4489.5 kPa | 988.4 ± 1.2 kg/m3
4493.3 kPa | 988.5 ± 1.2 kg/m3
4498.2 kPa | 988.4 ± 1.2 kg/m3
4502.1 kPa | 988.4 ± 1.2 kg/m3
4505.9 kPa | 988.5 ± 1.2 kg/m3
4509.9 kPa | 988.5 ± 1.2 kg/m3
4513.7 kPa | 988.6 ± 1.2 kg/m3
4518.2 kPa | 988.4 ± 1.2 kg/m3
4521.7 kPa | 988.5 ± 1.2 kg/m3
4525.7 kPa | 988.5 ± 1.2 kg/m3
4529.3 kPa | 988.5 ± 1.2 kg/m3
4533.1 kPa | 988.5 ± 1.2 kg/m3
4539.2 kPa | 988.5 ± 1.2 kg/m3
4548.9 kPa | 988.4 ± 1.2 kg/m3
4556.8 kPa | 988.5 ± 1.2 kg/m3
4564.8 kPa | 988.5 ± 1.2 kg/m3
4572.9 kPa | 988.5 ± 1.2 kg/m3
4583.2 kPa | 988.6 ± 1.2 kg/m3
4591.3 kPa | 988.5 ± 1.2 kg/m3
4599.9 kPa | 988.5 ± 1.2 kg/m3
4607.7 kPa | 988.6 ± 1.2 kg/m3
4617.4 kPa | 988.5 ± 1.2 kg/m3
4625.9 kPa | 988.5 ± 1.2 kg/m3
4635.9 kPa | 988.4 ± 1.2 kg/m3
4644.3 kPa | 988.5 ± 1.2 kg/m3
4652.7 kPa | 988.5 ± 1.2 kg/m3
4663.3 kPa | 988.5 ± 1.2 kg/m3
4671.8 kPa | 988.5 ± 1.2 kg/m3
4680.4 kPa | 988.5 ± 1.2 kg/m3
4689.1 kPa | 988.6 ± 1.2 kg/m3
4697.7 kPa | 988.5 ± 1.2 kg/m3
4708.3 kPa | 988.6 ± 1.2 kg/m3
4717 kPa | 988.6 ± 1.2 kg/m3
4726.5 kPa | 988.6 ± 1.2 kg/m3
4737 kPa | 988.7 ± 1.2 kg/m3
4746.4 kPa | 988.9 ± 1.2 kg/m3
4755 kPa | 988.6 ± 1.2 kg/m3
4774.4 kPa | 988.7 ± 1.2 kg/m3
4781.5 kPa | 988.6 ± 1.2 kg/m3
4786.9 kPa | 988.6 ± 1.2 kg/m3
4792.4 kPa | 988.5 ± 1.2 kg/m3
4799.3 kPa | 988.6 ± 1.2 kg/m3
4804.7 kPa | 988.7 ± 1.2 kg/m3
4810.6 kPa | 988.6 ± 1.2 kg/m3
4816.1 kPa | 988.7 ± 1.2 kg/m3
4823 kPa | 988.6 ± 1.2 kg/m3
4828.9 kPa | 988.7 ± 1.2 kg/m3
4834.3 kPa | 988.7 ± 1.2 kg/m3
4841.2 kPa | 988.6 ± 1.2 kg/m3
4847.3 kPa | 988.7 ± 1.2 kg/m3
4853.2 kPa | 988.7 ± 1.2 kg/m3
4858.7 kPa | 988.6 ± 1.2 kg/m3
4865.8 kPa | 988.6 ± 1.2 kg/m3
4871.7 kPa | 988.8 ± 1.2 kg/m3
4877.4 kPa | 988.7 ± 1.2 kg/m3
4884.1 kPa | 988.6 ± 1.2 kg/m3
4890 kPa | 988.7 ± 1.2 kg/m3
4895.9 kPa | 988.8 ± 1.2 kg/m3
4902.8 kPa | 988.7 ± 1.2 kg/m3
4908.7 kPa | 988.8 ± 1.2 kg/m3
4914.6 kPa | 988.7 ± 1.2 kg/m3
4920.6 kPa | 988.8 ± 1.2 kg/m3
4927.9 kPa | 988.7 ± 1.2 kg/m3
4934 kPa | 988.7 ± 1.2 kg/m3
4940 kPa | 988.7 ± 1.2 kg/m3
4946.3 kPa | 988.7 ± 1.2 kg/m3
4953 kPa | 988.7 ± 1.2 kg/m3
4959.8 kPa | 988.6 ± 1.2 kg/m3
4965.7 kPa | 988.6 ± 1.2 kg/m3
4971.9 kPa | 988.7 ± 1.2 kg/m3
4978 kPa | 988.8 ± 1.2 kg/m3
4985.2 kPa | 988.8 ± 1.2 kg/m3
4991.3 kPa | 988.8 ± 1.2 kg/m3
4997.3 kPa | 988.9 ± 1.2 kg/m3
5004.4 kPa | 988.8 ± 1.2 kg/m3
5010.7 kPa | 988.7 ± 1.2 kg/m3
5016.9 kPa | 988.8 ± 1.2 kg/m3
5023.1 kPa | 988.7 ± 1.2 kg/m3
5031.1 kPa | 988.7 ± 1.2 kg/m3
5036.4 kPa | 988.8 ± 1.2 kg/m3
5043.4 kPa | 988.8 ± 1.2 kg/m3
5049.8 kPa | 988.8 ± 1.2 kg/m3
5057 kPa | 988.9 ± 1.2 kg/m3
5063.3 kPa | 988.7 ± 1.2 kg/m3
5069.3 kPa | 988.8 ± 1.2 kg/m3
5075.9 kPa | 988.8 ± 1.2 kg/m3
5083.3 kPa | 988.9 ± 1.2 kg/m3
5089.6 kPa | 988.9 ± 1.2 kg/m3
5095.8 kPa | 988.8 ± 1.2 kg/m3
5103.7 kPa | 988.7 ± 1.2 kg/m3
5110 kPa | 988.8 ± 1.2 kg/m3
5116.5 kPa | 988.9 ± 1.2 kg/m3
5122.9 kPa | 988.8 ± 1.2 kg/m3
5129 kPa | 988.9 ± 1.2 kg/m3
5137 kPa | 988.9 ± 1.2 kg/m3
5192 kPa | 988.9 ± 1.2 kg/m3
5198.7 kPa | 988.9 ± 1.2 kg/m3
5206.7 kPa | 989 ± 1.2 kg/m3
5213.1 kPa | 989 ± 1.2 kg/m3
5219.7 kPa | 988.8 ± 1.2 kg/m3
5227.4 kPa | 988.8 ± 1.2 kg/m3
5234.2 kPa | 988.9 ± 1.2 kg/m3
5241.1 kPa | 988.9 ± 1.2 kg/m3
5247.7 kPa | 988.9 ± 1.2 kg/m3
5255.5 kPa | 988.9 ± 1.2 kg/m3
5262.2 kPa | 988.9 ± 1.2 kg/m3
5269 kPa | 988.9 ± 1.2 kg/m3
5277.1 kPa | 989 ± 1.2 kg/m3
5284.2 kPa | 988.9 ± 1.2 kg/m3
5291.1 kPa | 988.9 ± 1.2 kg/m3
5298.2 kPa | 988.9 ± 1.2 kg/m3
5306.7 kPa | 988.9 ± 1.2 kg/m3
5313.1 kPa | 988.9 ± 1.2 kg/m3
5319.7 kPa | 989 ± 1.2 kg/m3
5326.9 kPa | 988.9 ± 1.2 kg/m3
5335.6 kPa | 988.9 ± 1.2 kg/m3
5342.3 kPa | 988.9 ± 1.2 kg/m3
5349.4 kPa | 988.9 ± 1.2 kg/m3
5357.5 kPa | 989 ± 1.2 kg/m3
5365 kPa | 988.9 ± 1.2 kg/m3
5371.7 kPa | 989 ± 1.2 kg/m3
5380.2 kPa | 989 ± 1.2 kg/m3
5387.5 kPa | 989 ± 1.2 kg/m3
5394.7 kPa | 988.9 ± 1.2 kg/m3
5401.6 kPa | 989.1 ± 1.2 kg/m3
5410.1 kPa | 989 ± 1.2 kg/m3
5417.6 kPa | 989 ± 1.2 kg/m3
5424.8 kPa | 988.9 ± 1.2 kg/m3
5433.5 kPa | 989 ± 1.2 kg/m3
5440.6 kPa | 989.1 ± 1.2 kg/m3
5447.7 kPa | 989.1 ± 1.2 kg/m3
5455.3 kPa | 989 ± 1.2 kg/m3
5463.1 kPa | 989.1 ± 1.2 kg/m3
5471.2 kPa | 989.1 ± 1.2 kg/m3
5478.6 kPa | 989 ± 1.2 kg/m3
5485.9 kPa | 989.1 ± 1.2 kg/m3
5494.7 kPa | 989.1 ± 1.2 kg/m3
5502.5 kPa | 989.1 ± 1.2 kg/m3
5509.9 kPa | 989 ± 1.2 kg/m3
5517.5 kPa | 989.1 ± 1.2 kg/m3
5526.7 kPa | 989.1 ± 1.2 kg/m3
5534 kPa | 989.2 ± 1.2 kg/m3
5541.8 kPa | 989.2 ± 1.2 kg/m3
5549 kPa | 989.1 ± 1.2 kg/m3
5565.4 kPa | 989.1 ± 1.2 kg/m3
5582.7 kPa | 989.1 ± 1.2 kg/m3
5591.5 kPa | 989.2 ± 1.2 kg/m3
5599.8 kPa | 989.1 ± 1.2 kg/m3
5607.5 kPa | 989.2 ± 1.2 kg/m3
5615.5 kPa | 989.2 ± 1.2 kg/m3
5624.1 kPa | 989.1 ± 1.2 kg/m3
5632.1 kPa | 989.2 ± 1.2 kg/m3
5640 kPa | 989.1 ± 1.2 kg/m3
5649.2 kPa | 989.2 ± 1.2 kg/m3
5657 kPa | 989.3 ± 1.2 kg/m3
5665.1 kPa | 989.1 ± 1.2 kg/m3
5674.3 kPa | 989.1 ± 1.2 kg/m3
5682.4 kPa | 989.1 ± 1.2 kg/m3
5690.4 kPa | 989.2 ± 1.2 kg/m3
5697.6 kPa | 989.2 ± 1.2 kg/m3
5705.8 kPa | 989.1 ± 1.2 kg/m3
5714.2 kPa | 989.3 ± 1.2 kg/m3
5724.3 kPa | 989.1 ± 1.2 kg/m3
5732.6 kPa | 989.2 ± 1.2 kg/m3
5739.8 kPa | 989.3 ± 1.2 kg/m3
5774.2 kPa | 989.2 ± 1.2 kg/m3
5783.6 kPa | 989.3 ± 1.2 kg/m3
5791.5 kPa | 989.2 ± 1.2 kg/m3
5800 kPa | 989.2 ± 1.2 kg/m3
5810.4 kPa | 989.3 ± 1.2 kg/m3
5818.7 kPa | 989.3 ± 1.2 kg/m3
5827 kPa | 989.3 ± 1.2 kg/m3
5837 kPa | 989.3 ± 1.2 kg/m3
5845 kPa | 989.2 ± 1.2 kg/m3
5854.3 kPa | 989.2 ± 1.2 kg/m3
5862.6 kPa | 989.3 ± 1.2 kg/m3
5871.8 kPa | 989.2 ± 1.2 kg/m3
